Test results taken from paper PMC8882908, “Tricyclic Antidepressant Structure-Related Alterations in Calcium-Dependent Inhibition and Open-Channel Block of NMDA Receptors” (Frontiers in Pharmacology, 2022).
Values joined by “and” are separate entries in the source; they are usually repeats but may differ in a detail not shown here. Identical values can stand only once. Like-named read-outs stand apart in the source and are kept apart here.

Tests used:
[1] = target: N-methyl-D-aspartate receptors (NMDARs); conditions: read-out: model-predicted IC50; [Ca2+] = 2.5 mM, Vm = −70 mV
Source text: To obtain the voltage-dependence of NMDAR block by TCAs, the concentration-ihibition curves were generated at three membrane holding potentials Vm = −100, −70, and −30 mV. The obtained values were fitted with the modified by incorporating the dependence of NMDAR inhibition on [Ca^2+] ([Stepanenko et al., 2019]) Woodhull equation: IC50(Vm[Ca^2+])=IC50(0 mV)·exp(VmzδF/RT)·exp(-[Ca^2+]/X) (6) where IC50 (0 mV) and δ were set as free parameters. IC50 (0 mV) is the value of IC50 at Vm = 0 mV, δ is the fraction of the membrane voltage field exerting force on TCA at its binding site. z = 1 is a molecule electric charge for both DES and CLO. For Faraday constant, gas constant, and room temperature of 28°C, the RT/F ≈ 26 mV. RT/(zδF) is equal to Vm, producing an e-fold change of IC50, and X is equal to [Ca^2+], producing an e-fold change of IC50.
The model is described by Eq. 6 IC50 (Vm, [Ca^2+]) = IC50 (0 mV) • exp (Vm/(e-fold change Vm)) • exp (- [Ca^2+]/(e-fold change [Ca^2+])). The dependences of TCA IC50s on [Ca^2+] […]
FIGURE 7 Predicted IC50 values for NMDAR inhibition by tricyclic antidepressants as a function of membrane voltage (Vm) and external [Ca^2+]. […] The IC50s were calculated as IC50(Vm, [Ca^2+]) = IC50(0 mV) · exp (Vm/Y) ·exp(-[Ca^2+]/X), where X is equal to the [Ca^2+] value required for an e-fold change of IC50, and Y is equal to the Vm value required for an e-fold change of IC50.

[2] = tested on: N-methyl-D-aspartate receptors (NMDARs); test: Kinetics of NMDAR open-channel block and trapping block (block/unblock relaxations, AP5 washout protocol); format: cell-based, rat
Method: Experiments were performed at 22–25°C.
NMDAR current relaxations during block or unblock by TCA were fit with the single exponential equation: I =(Imax-Imin)·exp (-t/τ)+Imin (2) where Imax and Imin are maximal and minimal amplitudes of currents during relaxations and τ represents the time constant of the exponential component during block onset (τon) or offset (unblock, τoff). From these measurements, the rate constants of block (k^+) and unblock (k^−) was estimated. k^+ was obtained from τon measured at 20 and 90 μM DES (C1 and C2 respectively) using the equation: k^+=(1 /τonC2-1/τonC1)/(C2 - C1) (3)
The k^− was the reciprocal to measured τoff: k^-=1 /τoff (4)
The equilibrium dissociation constant (Kd) for DES was calculated as follows: Kd=k^-/ k^+ (5)
The rise time of currents activated by the testing NMDA + Gly application in trapping channel block experiments was fitted in ClampFit (pClamp, Axon Instruments) using the double exponential function: I=I1·exp(-t/τ1)+I2·exp(-t/τ2)- C (7) where I1 and I2 are amplitudes of the exponential and τ1 and τ2 are time constants of the exponential and C equals I1 + I2 + Ib.
To study the kinetics of open-channel block of NMDARs by DES, we performed experiments at a single Vm = −70 mV using a Ca^2+-free bathing solution to avoid the influence of the Ca^2+-dependent process. DES was applied at a steady state of NMDAR currents at high (90 μM) or low (20 μM) concentrations (Figure 4A). DES-induced block corresponds well to basic predictions of an open-channel block. The block onset (τon) and offset (τoff) were well fit by a single exponential function (Eq. 2). […] The rate constants of block and unblock calculated on the basis of Eqs 3, 4 were k^+ = 0.008 ± 0.002 s^−1 μM^−1; k^− = 0.039 ± 0.005 s^−1, correspondently.
The absence in records of “tail currents” upon the simultaneous removal of agonists and a blocker may speak in favor of trapping of the blocking molecule inside of the pore ([Costa and Albuquerque 1994]; [Vorobjev and Sharonova 1994]; [Benveniste and Mayer 1995]; [Sobolevsky et al., 1999]). We, therefore, further tested the possibility of trapping of DES in the pore of NMDARs by the channel closure. A series of experiments were carried out following the protocol used previously for ATL ([Stepanenko et al., 2019]). After reaching an equilibrium of NMDA-mediated currents, 90 μM DES was applied to the cell for 10 s until the development of a stable block with a small amount of residual current (Ib) (Figure 4C). […] Single exponential approximation of the data at Figure 4E (dashed line) elicits the time constant of 7.7 ± 1.8 s for DES escape from trapping, representing the quantitative characteristic of DES partial trapping block.

NMDARs = conditions: cited from earlier work
NMDAR channels = tested on: NMDAR channels; set-up: method as in Reynolds and Miller 1988; conditions: ref Reynolds and Miller 1988; cited from earlier work
[3] = tested on: N-methyl-D-aspartate receptors (NMDARs); conditions: for δ, fraction of the membrane electric field to the binding site: Woodhull model, from the outside
Method: All procedures on animals were performed in accordance with the guide of the Federation for Laboratory Animal Science Associations (FELASA) and were approved by the Animal Care and Use Committees of Sechenov Institute. Briefly, 17 days pregnant Wistar rats (supplied by the Sechenov Institute Animal Facility) were sacrificed by 1 min CO2 inhalation in a plastic box connected to a CO2 tank. Fetuses were removed, and then primary cultures of rat cortical neurons were prepared using conventional procedures as described earlier ([Antonov and Johnson 1996]; [Mironova et al., 2007]). Neurons were grown in Neurobasal culture medium supplemented with B-27 (Gibco-Invitrogen, United Kingdom) on 7 mm glass coverslips coated with poly-D-lysine and were used for experiments after 10–14 days in culture ([Mironova et al., 2007]; [Han and Stevens 2009]).
Whole-cell currents were recorded from cultured rat cortical neurons using a MultiClamp 700B patch-clamp amplifier. Recordings were low-pass filtered at 400 Hz and digitized at the acquisition rate of 20,000 samples per second by Digidata 1440A controlled by pClamp v10.6 software (Molecular Devices). Solution exchange was performed by means of a fast solution application system as described earlier ([Sibarov et al., 2015]). Unless otherwise specified, the external bathing solution contained (in mM): 144 NaCl; 2.8 KCl; 1.0 CaCl2; 10 HEPES, at pH 7.2–7.4, osmolarity 310 mOsm. The intrapipette solution contained (in mM): 120 CsF, 10 CsCl, 10 EGTA, and 10 HEPES, osmolarity 300 mOsm, with pH adjusted to 7.4 with CsOH. Patch pipettes of 4–6 MΩ were pulled from Sutter BF150-89-10 borosilicate capillaries. Experiments were performed at 22–25°C. Under control conditions, neurons were voltage clamped at −70 mV. Data are reported without corrections for liquid junction potential, which was measured as −11 mV. To activate NMDARs, 100 µM NMDA was always co-applied with 10 µM glycine as co-agonist. Some experiments were performed on neurons loaded with BAPTA. To load BAPTA, cortical neuron cultures were incubated in a bathing solution containing 5 µM BAPTA-AM for 1 h.
To determine the blocking potency of TCAs, NMDA elicited currents were measured in the absence and presence of different TCA concentrations ([B]). Amplitudes of currents measured in the presence of blocker (Ib) were normalized to maximal current response in control (Ic). The IC50 is the concentration of TCA that cause 50% of the maximal inhibition of currents, and the Hill coefficient (h) were estimated by fitting concentration-inhibition curves with the Hill equation: Ib/Ιc=1/(1+[Β]^h/ΙC50h) (1)
To obtain the voltage-dependence of NMDAR block by TCAs, the concentration-ihibition curves were generated at three membrane holding potentials Vm = −100, −70, and −30 mV. The obtained values were fitted with the modified by incorporating the dependence of NMDAR inhibition on [Ca^2+] ([Stepanenko et al., 2019]) Woodhull equation: IC50(Vm[Ca^2+])=IC50(0 mV)·exp(VmzδF/RT)·exp(-[Ca^2+]/X) (6) where IC50 (0 mV) and δ were set as free parameters. […] For Faraday constant, gas constant, and room temperature of 28°C, the RT/F ≈ 26 mV. RT/(zδF) is equal to Vm, producing an e-fold change of IC50, and X is equal to [Ca^2+], producing an e-fold change of IC50.

[4] = set-up: method as in Stern et al., 1980; McTavish and Benfield 1990; conditions: ref Stern et al., 1980; McTavish and Benfield 1990; cited from earlier work

With `CNCCCN1c2ccccc2CCc2ccccc21` [DES, desipramine] the IC50 [1] was 0.13 µM, the “fold lesser rate of dissociation from channels than ATL” value [2] was “about 5 folds” and the “rate constant of unblock k−” value ([2]; Vm = −70 mV, Ca2+-free solution, 1/τoff) was 0.039 ± 0.005 s⁻¹. For the same molecule, the “rate constant of block k+” value ([2]; Vm = −70 mV, Ca2+-free solution, from τon at 20 and 90 μM) was 8000 ± 2000 M⁻¹ s⁻¹, the Kd ([2]; Vm = −70 mV, Ca2+-free solution, read-out: equilibrium dissociation constant Kd = k−/k+) was 4.7 ± 1.9 µM and the “e-fold change Vm” value (NMDARs; 5 μM NMDA, physiological extracellular Ca2+, ref Sernagor et al., 1989) was 36 mV. For the same molecule, the IC50 (NMDARs; 5 μM NMDA, physiological extracellular Ca2+, ref Sernagor et al., 1989, read-out: IC50) was 9.8 µM, the IC50 (NMDARs; Vm = −70 mV, extracellular Ca2+ present, 100 μM NMDA, ref Barygin et al., 2017, read-out: IC50) was 1.4 µM and the IC50 (NMDARs; Vm = −70 mV, extracellular Ca2+ present, 100 μM NMDA, ref Nothdurfter et al., 2013, read-out: IC50) was 2.7 µM. For the same molecule, the IC50 (NMDARs; varying experimental conditions, ref Reynolds and Miller 1988, Sernagor et al., 1989, Nothdurfter et al., 2013, Barygin et al., 2017, read-out: IC50 values reported for NMDAR inhibition) was 1.4 to 9.8 µM, the “concentration displacing MK-801 from the NMDAR channels” value (NMDAR channels) was 7.41 µM and the “fold drop of IC50 on increasing extracellular [Ca2+] from 0 to 1 mM” value [3] was 5 fold. The “fold smaller Vm shift for an e-fold change of IC50 than ATL or CLO” value [3] was about 1.5 folds, the “δ, fraction of the membrane electric field to the binding site” value [3] was 0.71 and the “open-channel block potency relative to ATL” value ([3]; based on IC50 (0 mV)) was “about 5 folds”. For the same molecule, the “e-fold change Vm (Vm shift giving an e-fold change of IC50)” value ([3]; fit with Eq. 6) was 37 ± 3.4 mV and 37 mV and 36.9 ± 3.4 mV, the “e-fold change [Ca2+] ([Ca2+] shift giving an e-fold change of IC50)” value ([3]; fit with Eq. 6, Vm = −70 mV) was 590 µM and 590 ± 70 µM and the IC50 ([3]; read-out: IC50(0 mV), value of IC50 at Vm = 0 mV from fit with Eq. 6 (Woodhull)) was 60 ± 5.7 µM. For the same molecule, the IC50 ([3]; read-out: IC50 of the inhibition of NMDAR currents, Vm = −30 mV, [Ca2+] = 0) was 27 µM, the IC50 ([3]; read-out: IC50 of the inhibition of NMDAR currents, Vm = −30 mV, [Ca2+] = 1 mM) was 4.85 µM and the IC50 ([3]; read-out: IC50 of the inhibition of NMDAR currents, Vm = −70 mV, [Ca2+] = 0) was 8.3 µM. For the same molecule, the IC50 ([3]; read-out: IC50 of the inhibition of NMDAR currents, Vm = −70 mV, [Ca2+] = 1 mM) was 1.75 µM, the IC50 ([3]; read-out: IC50 of the inhibition of NMDAR currents, Vm = −70 mV, [Ca2+] = 4 mM) was 1.8 µM and 1.81 µM and the IC50 ([3]; read-out: IC50 of the inhibition of NMDAR currents, Vm = −100 mV, [Ca2+] = 1 mM) was 0.89 µM. For the same molecule, the “fold IC50 decrease with Vm shift from −30 to −100 mV” value ([3]; regardless of extracellular calcium) was 5.4 fold.

In the case of `CN(C)CCCN1c2ccccc2CCc2ccc(Cl)cc21` [CLO, clomipramine], the therapeutic blood concentrations [4] is listed as 0.3 to 1 µM and the “δ, fraction of the membrane electric field to the binding site” value [3] is listed as 0.51.

For `CN(C)CCC=C1c2ccccc2CCc2ccccc21` [ATL, amitriptyline], the IC50 [1] is listed as 1.6 µM, the “e-fold change Vm” value (NMDARs; ref Stepanenko et al., 2019) is listed as 54 mV and the “e-fold change [Ca2+]” value (NMDARs; ref Stepanenko et al., 2019) is listed as 0.63 mM. For the same molecule, the “time constant of escape from trapping block” value (NMDARs; ref Stepanenko et al., 2019) was “about 1.2 s”, the “δ, fraction of the membrane electric field” value (NMDARs; ref Stepanenko et al., 2019) was 0.51 and the IC50 (NMDARs; ref Stepanenko et al., 2019, read-out: IC50(0 mV)) was 321 µM.
